Laboratory results taken from patent US20250281509A1, “SEQUENTIAL HORMONE THERAPY TO IMPROVE SURVIVAL AND ENHANCE RESPONSE TO IMMUNE THERAPY IN MEN WITH PROSTATE CANCER” (The Johns Hopkins University, priority 2021, published 2025).
Values joined by “and” are separate entries in the source; they are usually repeats but may differ in a detail not shown here. Equal entries are not always repeated. Where two headings read alike, the source gives them in different places.

How the values were obtained:
CRPC [1] = assay: Post hoc analysis of PSA response to subsequent hormonal therapies post-BAT (pilot study); format: in vivo, human
Method: As part of the aforementioned pilot study, a post hoc exploratory analysis on the effect of BAT on subsequent hormonal therapies was performed. […] All of the patients had received at least one anti-androgen prior to starting the study, Table 2. PSA response to secondary hormonal therapy after return to castrate T-levels post-BAT.

CRPC [2] = assay: RESTORE Phase II study (NCT02090114); format: in vivo, human; conditions: re-challenge with the agent patients progressed on before BAT
From the text: The RESTORE study (NCT02090114) was an NIH sponsored Phase II study designed to assess the safety and efficacy of BAT in men (n=30 per cohort) with CRPC progressing on enzalutamide (Cohort A) or abiraterone (Cohort B), FIG. 6A. Shah et al., 2004. The primary endpoint of the first part of the study was to assess PSA response to BAT. Secondary endpoints included objective response, safety, and quality of life. The second part of the study was to determine in BAT could re-sensitize patients to repeat exposure to second line therapy that patients were progressing on prior to receiving BAT. Thus, patients progressing on enzalutamide were re-exposed to enzalutamide after BAT and similarly for abiraterone. Both arms of this study met the primary endpoint. PSA50 Response to BAT was 30% in patient's post-enzalutamide and 18% post-abiraterone, FIG. 6B. Shah et al., 2004. […] Overall duration of response to BAT and duration of response to re-exposure was longer in the post-enzalutamide vs. post-abiraterone cohort. The PSA50 response to re-exposure to enzalutamide was 71% vs. only 21% for patients re-exposed to abiraterone, FIG. 6B. Shah et al., 2004. A third cohort was later added (Cohort C) for men progressing on ADT alone. Overall, 90 men were treated on this study over a 4-year period (2014-2018).

[3] = test system: CRPC progressing on abiraterone; assay: TRANSFORMER randomized Phase II study (NCT02286921); format: in vivo, human; conditions: for PSA50 response: patients crossing from BAT to enzalutamide
Method: The TRANSFORMER study (NCT02286921) was a DOD-sponsored randomized Phase II study designed to compare the efficacy of BAT vs. enzalutamide in asymptomatic men with CRPC progressing on abiraterone, FIG. 7A. The study was conducted at 17 academic centers across the U.S. The study was coordinated by the Prostate Cancer Disease Group clinical research team at Johns Hopkins, who performed regulatory oversight, study/site monitoring, and data analyses. From 2015-2018, 195 patients underwent 1:1 randomization to either standard dose enzalutamide (n=101) or BAT (n=94) at 400 mg IM every 28 days. The primary endpoint was clinical/radiographic PFS. At time of progression, patients were given the option to crossover to the alternate therapy. The trial was designed to show a 50% improvement in the primary endpoint for BAT vs. enzalutamide. […] Objective response was 24.4% for BAT and 4.2% for enzalutamide (p=0.067). Best PSA50 was 26.4% for BAT and 25.5% for enzalutamide (p=0.697).
At time of progression, 46 (49%) of patients on the […] crossed over to receive BAT and 34 (33.7%) crossed over from BAT to receive enzalutamide and were available for analysis.

CRPC [4] = conditions: cited from earlier work
CRPC [5] = conditions: enzalutamide post-abiraterone, pre-chemotherapy setting; cited from earlier work
[6] = test system: metastatic castration-resistant prostate cancer; conditions: cited from earlier work
CRPC [7] = conditions: post-docetaxel setting; cited from earlier work
AR-V = AR-V expression in VCaP cells exposed to R1881 (FIG. 1B); format: cell-based, human; conditions: 48-hr exposure
From the text: FIG. 1A and FIG. 1B show (FIG. 1A) Effect of synthetic androgen R1881 or bicalutamide on growth of ADT-resistant LNCaP and VCAP; (FIG. 1B) expression of full-length AR (AR-FL), AR-variants (AR-Vs) using antibody to AR N-terminal domain and AR-V& using AR-V7 specific antibody in the absence or presence of R1881;
Thelen et al., 2013. These AR-V expressing cells are profoundly growth inhibited by high dose levels of androgens, FIG. 1A.

PARP cleavage = PARP cleavage in prostate cancer cell lines; format: cell-based, human
Method: (§1) Cell lysates were prepared either in 1× denaturing lysis buffer (Cell Signaling #9803) or non-denaturing lysis buffer (50 mM HEPES pH 7.4, 150 mM NaCl, 5 mM EDTA, 10% glycerol, 1% Nonidet P-40, and supplemented with phosphatase and protease inhibitors). For denaturing gels, lysates were mixed with Laemmli buffer containing β-mercaptoethanol, boiled for 5 mins and stored at −80° C. until use. Native lysates were mixed with native loading buffer (BioRad), and semi-native lysates were mixed with Laemmli buffer without beta-mercaptoethanol and stored at −80° C. without boiling. Native gels were resolved as described previously, Robitaille et al., 2016; denaturing and semi-native gels were resolved on 4-15% precast polyacrylamide gels (BioRad) followed by transfer to PVDF membrane. Membranes were blocked in 5% nonfat milk in wash buffer (Tris-buffered saline+0.1% Tween-20). After blocking, immunoblotting was performed with primary antibodies overnight at 4° C., followed by incubation with HRP-conjugated secondary antibodies for 1 h at room temperature. Blots were analyzed using the chemiluminescence method. Blots were developed using ECL Western blot detection reagent (GE Healthcare) for highly expressed proteins and Super Signal West Femto (Thermo Fisher) reagent for low expression proteins. Each experiment was repeated at least two to three times.

LNCaP cells = assay: Annexin-V positivity; format: cell-based, human
autophagy = assay: Autophagy induction in PCa cell lines; format: cell-based, human
Method: as §1
Cells were plated on 60-mm dishes to obtain 80% confluence on the next day. Cells were transfected with tandem mRFP-GFP fluorescent-tagged LC3 (ptfLC3) (Addgene #21074). 24 h post-transfection, cells were trypsinized and plated on sterile glass-bottom dishes at a 40-50% confluency and treated with androgens. Autophagosomes are labelled as green and red dual positive punctas and autolysosomes appear as red puncta as the green puncta is pH sensitive and quenched by the acidic lysosomal pH. Cells were then imaged using a live cell Zeiss LSM780-FCS Single-point, laser scanning confocal microscope. Images were processed using the ImageJ software. Cells with predominantly yellow RFP/GFP (autophagosome) or red RFP (autolysosome) punctae were counted and analyzed from at least twenty fields. Each experiment had images from at least five random fields and repeated three times.

lipid peroxides = assay: Lipid peroxide sensor C11-BODIPY; format: cell-based, human; conditions: LNCaP cells, vs vehicle
labile iron pool (Fe2+) = assay: Measurement of the labile iron pool; format: cell-based, human; conditions: LNCaP cells, vs vehicle
Method: An iron assay kit (Sigma) was used to measure the labile iron pool in control and R1881 treated cells. LNCaP and LAPC4 cells were culture in a 100-mm tissue culture dish and were treated for […] before lysis in the buffer provided with the kit by snap freezing and thawing method. The lysate was cleared by centrifuging at 13000×g, and iron was measured by iron detection reagents supplied in the kit. Iron levels were calculated and normalized by the total protein present in the cell lysate. Levels of Fe^2+ were analyzed in SupraT treated cells and were normalized to vehicle control cells.

cytoplasmic DNA = assay: Confocal microscopy of cytoplasmic DNA; format: cell-based, human; conditions: combination of hydroxychloroquine and R1881
Method: Cells were grown on sterile coverslips in low density and were treated with R1881 (T) or vehicle control (C). After treatment, media was removed, and cells were fixed and permeabilized using chilled methanol for 10 min in deep-freezer followed by 10 min fixation in 10% natural buffered formalin at room temperature. Post-fixation, cells were blocked overnight in sterile-filtered 5% BSA in PBS at 4° C. Cells were incubated with a primary antibody, followed by a suitable fluorochrome tagged secondary antibody at 4° C. overnight. Both primary and secondary antibodies were diluted with 5% BSA in PBS. Cells were postfixed with 10% NBF for 2-3 min before mounting on a clean glass slide using Vectashield antifade mounting media (Vector Laboratories). Image acquisition was performed on the LSM 700 laser confocal microscope (Zeiss). Experiment was repeated at least three times and images from at least five random fields from each experiment were used for analysis. Images were analyzed using the image processing package Fiji.

[8] = initial randomized arms, post-abiraterone
[9] = Enzalutamide Phase III (PREVAIL)

SMILES: CNC(=O)c1ccc(N2C(=S)N(c3ccc(C#N)c(C(F)(F)F)c3)C(=O)C2(C)C)cc1F [enzalutamide]
- patients with a PSA decline on second line therapy (CRPC [1]; after return to castrate testosterone levels post-BAT): 4/4
- Maximum PSA decline upon secondary HT initiation (%) (CRPC [1]; per subject, secondary HT received post-study after return to castrate T-levels post-BAT): −30.4% and −99.5% and −78.3% and −53.2%
- patients with >50% PSA decline on second line therapy (CRPC [1]; post-BAT): 3/4
- PSA decline upon re-challenge (CRPC [1]; subjects who had previously progressed on the same agent): 53.2%
- PSA50 response to re-exposure post-BAT (CRPC [2]): 71%
- Objective response ([3]; enzalutamide post-BAT patients): 28.6%
- Time to PSA progression ([3]; immediately post-abiraterone): 3.8 months
- increase in time to PSA progression, post-BAT vs post-abiraterone ([3]; in vivo): ~3 fold
- overall survival ([3]; in vivo): 28 months
- Best PSA50 [3, 8]: 25.5%
- Objective response [3, 8]: 4.2%
- Best PSA50 ([3]; initial randomized arms, post-abiraterone, listed as Enza): 25%
- clinical/radiographic PFS ([3]; initial randomized arms, p=0.2267): 5.72 m
- PSA50 response [3]: 72.7%
- PSA50 response ([3]; listed as Enza): 78%
- Time to PSA progression ([3]; post-BAT): 10.9 months
- Time to PSA progression ([3]; post-BAT, listed as Enza): 11 months
- >50% decline PSA (%) (CRPC [4]; [9]): 78%
- Objective Response (%) (CRPC [4]; [9]): 59%
- PSA PFS (CRPC [4]; [9]): 11.2
- TTP (m) (CRPC [4]; [9]): 20 m
- hazard ratio, overall survival (CRPC [4]; enzalutamide vs placebo, 95% CI 0.60 to 0.84): 0.71
- median overall survival (CRPC [4]; pre-chemotherapy setting, placebo 30.2 months): 32.4 months
- median rPFS (CRPC [5]): ≤ 6 months
- PFS (median), clinical/radiographic ([6]; AR-V7-negative patients): 6.1 months
- PSA response rate ([6]; AR-V7-negative patients): 52.6%
- PSA-PFS (median) ([6]; AR-V7-negative patients): 5.9 months
- PFS (median), clinical/radiographic ([6]; AR-V7-positive patients): 2.1 months
- PSA response rate ([6]; AR-V7-positive patients): 0%
- PSA-PFS (median) ([6]; AR-V7-positive patients): 1.4 months
- improvement in survival (CRPC [7]): approximately 5 months

SMILES: C[C@]1(O)CC[C@H]2[C@@H]3CCC4=CC(=O)CCC4=C3C=C[C@@]21C [R1881, 17α-methyl-19-nor-δ9,11-testosterone]
- AR-V expression (AR-V): Complete loss of AR-V expression
- PARP cleavage (PARP cleavage): none of the prostate cancer cell lines treated with synthetic androgen R1881 had any substantial enhancement of PARP cleavage
- Annexin-V positivity (LNCaP cells): no significant increase in Annexin-V
- basal autophagy (autophagy; LAPC4 and 22Rv1 cells): remained largely unaffected
- autophagy (autophagy; LNCaP and VCaP cells): notably induces autophagy
- lipid peroxides (lipid peroxides): increased
- labile iron pool (labile iron pool (Fe2+)): increased
- cytoplasmic DNA (cytoplasmic DNA; LAPC4 cells): did not show any cytoplasmic DNA
- cytoplasmic DNA (cytoplasmic DNA; LNCaP cells): marked localization of cytoplasmic DNA
- cytoplasmic DNA (cytoplasmic DNA; VCaP cells): fewer cytoplasmic DNA puncta
